What was measured:
[1] = cited from earlier work
[2] = system: myeloid leukaemia HL 60 cells; conditions: cited from earlier work
[3] = system: rat cardiomyoblasts (H9c2); experiment: Cytotoxicity, WST-1 metabolic activity, H9c2 cells; type: cell-based; conditions: 72 h incubation, metabolic activity (WST-1), three experiments
Experimental: (§1) Stock solutions were prepared by dissolving pure compounds to a final concentration of 20 mM in DMSO. The normal rat kidney epithelial cells (NRK, ATCC no.: CRL-6509) and rat cardiomyoblasts (H9c2, ATCC no.: CRL-1446) were cultured in DMEM medium supplemented with 10% foetal bovine serum (FBS, Invitrogen, Carlsbad, CA, USA). When the cells reached 80% confluence, they were detached in a mild trypsin treatment (0.33 mg/mL trypsin for 5 min at 37 °C), centrifuged (160× g, 4 min), and reseeded in fresh medium to 25% confluence.
(§2) All media were supplemented with 1 IU/mL penicillin and 1 mg/mL streptomycin (both from Cambrex, Liège, Belgium) and incubated in a humidified atmosphere (37 °C, 5% CO2). […]
(§3) […] The plates were further incubated for two hours before the signal was recorded at 450 nm with a reference at 620 nm. […]
(§4) After the recording of WST-1, the cells were then fixed with 2% buffered formaldehyde (pH 7.4) with 0.01 mg/mL of the DNA-specific fluorescent dye, Hoechst 33342. The presence of dead (apoptotic or necrotic) cells was verified via differential interference contrast and fluorescence microscopy as previously described by Oftedal et al. and Myhren et al..
(§5) EC50 values were determined using four-parameter regression analysis described by Viktorsson et al. using SigmaPlot v14 software (Systat Software Inc., San Jose, CA, USA).

[4] = system: acute myeloid leukaemia cell line MOLM13; experiment: Cytotoxicity, WST-1 metabolic activity, MOLM13 cells; type: cell-based; conditions: Homo sapiens, MOLM-13; 72 h incubation, metabolic activity (WST-1), 3 independent experiments
Experimental: as §1
The AML cell line MOLM13 (DSMZ no.: ACC554 [24]) was cultured in RPMI-1640 medium enriched with 10% FBS 8mM L-glutamine (Sigma Life Science, London, UK). […]
as §3, §4, §5

[5] = system: normal rat kidney epithelial cells (NRK); experiment: Cytotoxicity, WST-1 metabolic activity, NRK cells; type: cell-based; conditions: Epithelial cell, 72 h incubation, metabolic activity (WST-1), three experiments
Experimental: as §1, §2, §3, §4, §5

Structure (SMILES)	antibacterial activity [1]	cytotoxic effects against HL 60 cells [2]	EC50 [3]	EC50 [4]	EC50 [5]
CC1=C2C(=C[C@@](C)(CO)[C@@H]2O)C(=O)[C@](C)(O)C12CC2 [illudin S]	significant antibacterial activity	–	–	–	–
CC1=C2C(=CC(C)(C)[C@@H]2O)C(=O)[C@](C)(O)C12CC2 [illudin M]	significant antibacterial activity	6 to 100 nM	–	–	–
Cc1cc2c(c(C)c1CCOC1OC(CO)C(O)C(O)C1O)C(=O)C(C)(C)C2OC(=O)CC(=O)O [Compound 14, 3(R)-O-malonyl pteroside D]	–	–	> 200 µM	197.88 ± 0.18 µM	> 200 µM
